Paper PMC3964211, “Pharmacokinetic modeling optimizes inhibition of the ‘undruggable’ EWS-FLI1 transcription factor in Ewing Sarcoma” (Oncotarget, 2013)

Tested on: SK-ES xenograft
Experiment: Orthotopic mouse xenograft model, SK-ES, IP dosing
Assay type: in vivo
Details: for Regression of tumor volume over 3 days: SK-ES xenograft, 3-day, six-dose
Description: A series of models that combined results from in vitro colony assays and in vivo PK data were developed to evaluate several potential dosing schemes for the mice (Supplementary Figures 1A-E). We selected an IP dosing strategy (twice daily (BID) injections of […] racemic mixture) that would maintain a 3 ¼M plasma levels for greater than 72 hours in the mice (Figure 3A). With this IP dosing regimen, xenograft growth of A4573 was 70% less in the YK-4-279 treatment group compared to vehicle control (Figure 3B, p=0.04). […] To confrm the impact of YK-4-279 treatment on xenograft growth, mice with SK-ES xenografts were treated with racemic, (S), or (R)-YK-4-279 until control tumors reached 1 cm^3. Xenograft growth was reduced for those mice receiving both racemic and (S)-YK-4-279 over the control (Figure 3D, p=0.02 and p=0.003, respectively). […] Tumors were analyzed for drug levels of racemic, (R)-, and (S)-YK-4-279. Three of four mice treated with racemic compound had tumor levels of (S)-YK-4-279 that ranged from ~12-35 ¼g eq/g, which correlated with tumor growth ratios of less than 1.0, indicating response to the drug (Figure 3F). Those animals treated with the active (S)-YK-4-279 levels had tumor levels that were below 10 ¼g eq/g (Figure 3F). Tumor levels of (R)-YK-4-279 are also provided (Supplementary Figure 1F).
In order to evaluate tumors from animals treated in a similar fashion, including resection prior to central necrosis in controls, a 3-day, six-dose, experiment was executed. Treatment was initiated with racemic, (S)-, or (R)-YK-4-279 using BID IP administration at 400 mg/kg when tumors were well established at a volume of 250 to 300 mm^3. Both ES models treated with either racemic or (S)-YK-4-279 regressed by 25–30% of tumor volume over 3 days, while tumors grew in control and (R)-YK-4-279 treated animals (Figures 4A and B). Two hours following the 6th dose, mice were euthanized for tumor analysis. […] To confirm the apoptotic cell death, sections from A4573 tumors were stained with TUNEL (Figures 4D) and there was a 3 – 4 fold increase in TUNEL-positive cells treated with (S)-YK-4-279 compared to (R)-YK-R-279 treated tumors (Figure 4E). […] Levels of each enantiomer were measured in tumor samples and (S)-YK-4-279 levels correlated with clinical regression (Supplemental Figure 2B–E).
Two million A4573 or SK-ES Ewing's sarcoma cells in 0.1 mL were injected into an orthotopic paraosseous location, adjacent to the left proximal tibia, in 5-week-old female severe combined immunodeficient-beige (SCID/bg) mice (Harlan Laboratories, Inc., Indianapolis, IN). After primary tumors reached 250 – 300 mm^3 size, mice were randomized and received intraperitoneal injection (IP) with vehicle control (0.25% Lecithin solution or DMSO), (S)-YK-4-279, (R)-YK-4-279 or racemic YK-4-279 at a dose of 400 mg/kg twice a day (BID) for 7 days in a week. The tumor volume was determined by the formula (D × d2/6) × p, where D was the longer diameter and d was the shorter diameter. Tumor volume was monitored every day by caliper until the tumor size reaches 1cm^3. Mice were euthanized and primary tumors were collected. For the pharmacodynamics study mice were randomized and received 6 doses treatment with vehicle control (0.25% Lecithin solution or DMSO), (S)-YK-4-279, (R)-YK-4-279 or racemic YK-4-279 at a dose of 400 mg/kg twice a day (BID). Mice were euthanized after 2 hours of last 6th dosing and primary tumors were collected. Animal studies were approved by an Institutional Animal Care and Use Committee of the Georgetown University.
The plasma and tumor sample analysis was performed using calibration standards and Quality Control (QC) samples prepared in control rat or mouse plasma and tumor tissues. Plasma and tumor calibration standards were prepared from stock solutions of YK-4-279. […]

Structure (SMILES)	Regression of tumor volume over 3 days (BID IP 400 mg/kg)	Overall survival (SK-ES xenograft mice, BID IP 400 mg/kg, p=0.013 vs control)	Xenograft growth less than control group (SK-ES xenograft mice, BID IP racemic mixture (375 mg/kg in text, 400 mg/kg in Figure 3 legend), p=0.02) [%]	Xenograft growth over the control (SK-ES xenografts, BID IP 400 mg/kg until control tumors reached 1 cm^3)	Tumor growth ratios (SK-ES xenografts, three of four mice treated with racemic compound)
COc1ccc(C(=O)C[C@]2(O)C(=O)Nc3c(Cl)ccc(Cl)c32)cc1 [(R)-YK-4-279]	tumors grew				
COc1ccc(C(=O)CC2(O)C(=O)Nc3c(Cl)ccc(Cl)c32)cc1 (stereo not drawn) [YK-4-279]	25–30%	improved overall survival	70	reduced	less than 1.0
